{"source": "patent US11820745B2", "about": "“PKC-activating compounds for the treatment of neurodegenerative diseases” (Synaptogenix, Inc., priority 2008, dated 2023)", "key": {"Aβ": {"system": "Aβ", "assay": "Degradation of exogenously applied Aβ in SH-SY5Y neuroblastoma cells", "assay_type": "cell-based, human", "details": "0.01 to 10 μM; 100 nM exogenous monomeric Aβ-42; 24 h; FIG. 8", "protocol": "(§1) Cell culture. Rat hippocampal H19-71GF-IR cells (ATCC, Manassas, Va.) were plated onto poly-L-lysine coated plates and grown at 35° C. in DMEM/10% FCS for several days until about 50% coverage was obtained. The cells were then induced to differentiate into a neuronal phenotype by replacing the medium with 5 ml N2 medium containing 10 ng/ml basic fibroblast growth factor at 39° C. and grown in T-75 flasks at 37° C. Human SH-SY5Y neuroblastoma cells (ATCC) were cultured in 45% F12K/45% MEM/10% FCS. Mouse N2A neuroblastoma cells were cultured in DMEM/10% FCS without glutamine. Rat hippocampal neurons from 18-day-old embryonic\nAB Measurement and Cell Viability Assay. Aβ was measured using an Aβ1-42 human fluorimetric ELISA kit (Invitrogen) according to the manufacturer's instructions. Results were measured in a Biotek Synergy HT microplate reader. AlamarBlue and CyQuant NF (Invitrogen) according to the manufacturer's instructions.\nTo determine whether the reduced levels of AP caused by PKC activators were due to inhibition of Aβ synthesis or activation of Aβ degradation, we applied BR-111 (DHA-CP6) (0.01 to 10 μM) and low concentrations (100 nM) of exogenous monomeric Aβ-42 to cultured SH-SY5Y cells. This concentration of Aβ is too low to produce measurable toxicity or cell death. […]"}, "[1]": {"system": "Endothelin-converting enzyme (ECE)", "assay": "ECE assay in SH-SY5Y neuroblastoma cells", "assay_type": "cell-based, human", "details": "bryostatin 0.27 nM, BR-101 1 μM, BR-111 1 μM; FIG. 10", "protocol": "ECE assay. SH-S757 neuroblastoma cells were incubated with bryostatin (0.27 nM), BR-101 (PCP-LA) (1 μM), and BR-111 (DHA-CP6) (1 μM). Endothelin-converting enzyme (ECE) was measured fluorimetrically using the method of Johnson and Ahn, Anal. Biochem. 2000; 286: 112-118. A sample of cell homogenate (20 μl) was incubated in 50 mM MES-KOH, pH 6.0, 0.01% C12E10 (polyoxyethylene-10-tauryl ether), and 15 μM McaBK2. (7-Methoxycournarin-4-acetyl [Ala7-(2,4-Dinitrophenyl)Lys9]-bradykinin trifluoroacetate salt) (Sigma-Aldrich). After 60 min at 37° C., the reaction was quenched by adding trifluoroacetic acid to 0.5%. The sample was diluted to 1.4 ml with water and the fluorescence was measured at ex=334 nm, em=398 nm."}, "PKCα": {"target": "T1, PKCα (Homo sapiens, UniProt P17252)", "T1 construct": "purchased Calbiochem", "assay": "Protein kinase C assay, recombinant PKC alpha", "assay_type": "biochemical", "details": "data not shown", "protocol": "Protein kinase C assay. Recombinant PKC (1 ng of alpha or epsilon isofonn) was mixed with the BR-101 (UCP-LA) in the presence of 10 micromoiar histones, 5 mM CaCl2, 1.2 μg/μl phosphatidyl-L-serine, 0.18 μg/μl 1,2-dioctanoyl-sn-glycerol (DAG), […], […] (pH 7.4), 0.8 tnIVI EDTA, 4 mM EGTA, 4% glycerol, 8 μg/ml aprotinin, 8 μ/ml leupeptin, and 2 mM benzamidine. 0.5 micro Ci [^y32P]ATP was added. The incubation mixture was incubated for 15 min at 37 degrees in a total volume of 10 microliters. The reaction was stopped by spotting the reaction mixtures on 1×2 cm strips of cellulose phosphate paper (Whatman P81) and immediately washing twice for 1 hr in 0.5% H3PO4. The cellulose phosphate strips were counted in a scintillation counter. In some experiments, phosphatidylserine, diacylglycerol, and/or calcium were removed."}, "PKCδ": {"target": "T2, PKCδ (Homo sapiens, UniProt Q05655)", "T2 construct": "purchased Calbiochem", "T2 sequence (Q05655 whole entry)": "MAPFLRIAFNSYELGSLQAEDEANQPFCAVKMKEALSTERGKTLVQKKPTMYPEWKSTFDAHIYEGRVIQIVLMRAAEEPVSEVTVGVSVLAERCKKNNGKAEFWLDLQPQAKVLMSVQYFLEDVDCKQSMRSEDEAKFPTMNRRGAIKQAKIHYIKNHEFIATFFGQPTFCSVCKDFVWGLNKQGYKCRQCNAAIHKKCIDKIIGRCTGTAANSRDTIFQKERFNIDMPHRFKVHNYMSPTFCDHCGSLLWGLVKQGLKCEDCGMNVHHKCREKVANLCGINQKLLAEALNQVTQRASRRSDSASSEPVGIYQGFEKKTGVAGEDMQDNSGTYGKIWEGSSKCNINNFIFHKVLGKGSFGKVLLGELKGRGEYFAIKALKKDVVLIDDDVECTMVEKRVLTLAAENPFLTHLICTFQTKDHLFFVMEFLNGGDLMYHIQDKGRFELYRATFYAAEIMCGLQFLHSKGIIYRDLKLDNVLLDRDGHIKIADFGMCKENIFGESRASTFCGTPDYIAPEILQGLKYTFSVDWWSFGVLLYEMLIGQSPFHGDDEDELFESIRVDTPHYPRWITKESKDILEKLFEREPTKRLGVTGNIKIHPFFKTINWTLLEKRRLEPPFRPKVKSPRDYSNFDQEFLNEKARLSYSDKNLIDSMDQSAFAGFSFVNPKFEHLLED", "assay": "Protein kinase C assay, purified PKC isozymes: PKCδ", "assay_type": "biochemical", "details": "higher concentrations, about 1-100 μM; data not shown", "protocol": "(§2) Protein kinase C assay. Rat hippocampal cells were cultured and scraped in 0.2 ml homogenization buffer (20 triM Tris-HCl, pH 7.4, 50 mM NaF, 1 μg/ml leupeptin, and 0.1 mM PMSF) and homogenized by sonication in a Marsonix micro-probe sonicator (5 see, 10W). To measure PKC, 10 ul of cell homogenate or purified. PKC isozyme (purchased from Calbiochem) was incubated for 15 min at 37° C. in the presence of 10 μM histones, 4.89 mM CaCl2, 1.2 μg/μl phosphatidyl-L-serine, 0.18 μg/μl 1,2-dioctanoyl-sn-glycerol, 10 mM MgCl2, 20 mM HEPES (pH 7.4), 0.8 mM EDTA, 4 mM EGTA, 4% glycerol, 8 μg/ml aprotinin, 8 μg/ml leupeptin, and 2 mM benzamidine. 0.5 μCi [^γ-32P]ATP was added and ^32P-phosphoprotein formation was measured by adsorption onto phosphocellulose as described previously. Nelson and Alkon, J. Neurochemistry. 1995; 65: 2350-57. For measurements of activation by BR-101 (DCP-LA) and similar compounds, PKC activity was measured in the absence of diacylglycerol and phosphatidyl serine, as described by Kanno et al., and PKC δ, ε, η, and μ were measured in the absence of added EGTA and CaCl2, as described by Kanno et al., J. Lipid Res. 2006; 47: 1146-50. […]\n(§3) To determine their PKC isozyme specificity, the new compounds were preincubated with purified PKC for five minutes and the PKC activity was measured radiometrically."}, "other PKC isoforms": {"system": "other PKC isoforms", "assay": "Protein kinase C assay, purified PKC isozymes: other isoforms", "assay_type": "biochemical", "details": "data not shown", "protocol": "as §2, §3"}, "PKC [2]": {"system": "PKC", "assay": "PKC activity time course in rat H19-7/IGF-IR hippocampal cells", "assay_type": "cell-based", "protocol": "as §1\nProtein kinase C assay. Rat hippocampal cells were cultured and scraped in 0.2 ml homogenization buffer (20 triM Tris-HCl, pH 7.4, 50 mM NaF, 1 μg/ml leupeptin, and 0.1 mM PMSF) and homogenized by sonication in a Marsonix micro-probe sonicator (5 see, 10W). To measure PKC, 10 ul of cell homogenate or purified. PKC isozyme (purchased from Calbiochem) was incubated for 15 min at 37° C. in the presence of 10 μM histones, 4.89 mM CaCl2, 1.2 μg/μl phosphatidyl-L-serine, 0.18 μg/μl 1,2-dioctanoyl-sn-glycerol, 10 mM MgCl2, 20 mM HEPES (pH 7.4), 0.8 mM EDTA, 4 mM EGTA, 4% glycerol, 8 μg/ml aprotinin, 8 μg/ml leupeptin, and 2 mM benzamidine. 0.5 μCi [^γ-32P]ATP was added and ^32P-phosphoprotein formation was measured by adsorption onto phosphocellulose as described previously. Nelson and Alkon, J. Neurochemistry. 1995; 65: 2350-57. For measurements of activation by BR-101 (DCP-LA) and similar compounds, PKC activity was measured in the absence of diacylglycerol and phosphatidyl serine, as described by Kanno et al., and PKC δ, ε, η, and μ were measured in the absence of added EGTA and CaCl2, as described by Kanno et al., J. Lipid Res. 2006; 47: 1146-50. Low concentrations of Ca^2+ are used because high Ca^2+ interacts with the PKC phosphatidylserine binding site and prevents activation. For measurements of bryostatin activation, 1,2-diacylglycerol was omitted unless otherwise stated."}, "PKC [3]": {"system": "PKC", "assay": "PKC activity time course in rat hippocampal primary neurons", "assay_type": "cell-based", "details": "sustained activation only observed in primary neurons", "protocol": "as §1\nSprague Dawley rat brains were plated on 12- or 96-well plates coated with poly-D-lysine (Sigma-Aldrich, St, Louis, Mo.) in B-27 neurobasal medium containing 0.5 mM glutamine and 25 uM glutamate (Invitrogen, Carlsbad, Calif.) and cultured for three days in the medium without glutamate. […]\nProtein kinase C assay. […] 0.5 μCi [^γ-32P]ATP was added and ^32P-phosphoprotein formation was measured by adsorption onto phosphocellulose as described previously. […] For measurements of activation by BR-101 (DCP-LA) and similar compounds, PKC activity was measured in the absence of diacylglycerol and phosphatidyl serine, as described by Kanno et al., and PKC δ, ε, η, and μ were measured in the absence of added EGTA and CaCl2, as described by Kanno et al., J. Lipid Res. 2006; 47: 1146-50. […]"}}, "data": [{"smiles": "CCC1CC1CC1CC1CC1CC1CC1CC1CC1CC1CC1CC1CCC(=O)OC", "note": "(centres unmarked) [BR-111, methyl-3-(2-((2-((2-((2-((2-((2-ethylcyclopropyl)methyl)cyclopropyl)methyl)cyclopropyl)methyl)-cyclopropyl)methyl)cyclopropyl)methyl)cyclopropyl)propanoate]", "values": [{"measurement": "reduction of cellular levels of Aβ", "setting": "Aβ", "result": "45-63%"}, {"measurement": "ECE activity", "setting": "[1]", "result": "sustained increase"}]}, {"smiles": "CCCCCC1CC1CC1CC1CCCCCCCC(=O)O", "note": "(centres unmarked) [BR-101, 8-[2-(2-pentyl-cyclopropylmethyl)-cyclopropyl]-octanoic acid]", "values": [{"measurement": "effect on PKCα", "setting": "PKCα", "result": "not affected"}, {"measurement": "effect on PKCδ", "setting": "PKCδ", "result": "partially inhibited"}, {"measurement": "effects on the other PKC isoforms", "setting": "other PKC isoforms", "result": "relatively small effects"}, {"measurement": "downregulation of PKC", "setting": "PKC [2]", "result": "could not be measured"}, {"measurement": "duration of PKC elevation", "setting": "PKC [3]", "result": "remained elevated for at least four hours"}, {"measurement": "ECE activity", "setting": "[1]", "result": "sustained increase"}]}]}
